This is an account of results in patent US9382208B1, “Negative allosteric modulators of metabotropic glutamate receptor 2” (Vanderbilt University, priority 2015, dated 2016).

The assay concerns the target T1, rat mGlu2 (Rattus norvegicus, UniProt P31421).
T1 construct: expressed in transfected cells
Description: mGlu2 Ca2+ flux assay. The class given is cell-based. Particulars: for IC50: Gα15 HEK293 cells stably expressing rat mGlu2, glutamate EC80 addition, read-out: rat mGlu2 IC50; for remaining activity at 30 µM: amplitude of response in the presence of 30 μM test compound as percentage of maximal response to glutamate, read-out: rat mGlu2 Glu max (%). Here is the method:
Gα15 HEK293 cells stably expressing rat mGlu2 were plated in black-walled, clear-bottomed, poly-D-lysine coated 384-well plates in 20 μL of assay medium (DMEM containing 10% dialyzed FBS, 20 mM HEPES, and 1 mM sodium pyruvate) at a density of 12K cells/well. The cells were grown overnight at 37° C. in the presence of 5% CO2. The next day, medium was removed and the cells incubated with 20 μL of 2.3 μM Fluo-4, AM prepared as a 2.3 mM stock in DMSO and mixed in a 1:1 ratio with 10% (w/v) pluronic acid F-127 and diluted in assay buffer (Hank's balanced salt solution, 20 mM HEPES, and 2.5 mM probenecid) for 45 minutes at 37° C. Dye was removed, 20 μL of assay buffer was added, and the plate was incubated for 5 minutes at room temperature.
Ca^2+ flux was measured using the Functional Drug Screening System (FDSS7000, Hamamatsu, Japan). After establishment of a fluorescence baseline for about 3 seconds, the compounds of the present invention were added to the cells, and the response in cells was measured. 2.3 minutes later an EC20 concentration of the mGlu2 receptor agonist glutamate was added to the cells, and the response of the cells was measured for 1.9 minutes; an EC80 concentration of agonist was added and readings taken for an additional 1.7 minutes. All test compounds were dissolved and diluted to a concentration of 10 mM in 100% DMSO. Compounds were then serially diluted 1:3 in DMSO into 10 point concentration response curves, transferred to daughter plates, and further diluted into assay buffer to a 2× stock. Calcium fluorescence measures were recorded as fold over basal fluorescence; raw data was then normalized to the maximal response to glutamate. Antagonism of the agonist response of the mGlu2 receptor in the present invention was observed as a decrease in response to nearly maximal concentrations of glutamate in the presence of compound compared to the response to glutamate in the absence of compound.
The raw data file containing all time points was used as the data source in the analysis template. This was saved by the FDSS as a tab-delimited text file. Data were normalized using a static ratio function (F/F0) for each measurement of the total 360 values per well divided by each well's initial value. Data were then reduced to peak amplitudes (Max−Initial Min) using a time range that starts approximately 3 seconds prior to the glutamate EC80 addition and continues for approximately 90 seconds. This is sufficient time to capture the peak amplitude of the cellular calcium response. Individual amplitudes were expressed as % ECMax by multiplying each amplitude by 100 and then dividing the product by the mean of the amplitudes derived from the glutamate ECMax-treated wells. IC50 values for test compounds were generated by fitting the normalized values versus the log of the test compound concentration (in mol/L) using a 4 parameter logistic equation where none of the parameters were fixed. Each of the three values collected at each concentration of test compound were weighted evenly.
For NAMs, potency (IC50) and maximum response (% Glu Max), i.e. the amplitude of response in the presence of 30 μM test compound as a percentage of the maximal response to glutamate, are reported. […] Compounds with no measurable activity are designated as “>30,000 nM” since the top concentration of compound tested in the assay is 30 μM.

In general, IC50 refers to the concentration that gives 50% inhibition.

T1 sequence (P31421 19-872): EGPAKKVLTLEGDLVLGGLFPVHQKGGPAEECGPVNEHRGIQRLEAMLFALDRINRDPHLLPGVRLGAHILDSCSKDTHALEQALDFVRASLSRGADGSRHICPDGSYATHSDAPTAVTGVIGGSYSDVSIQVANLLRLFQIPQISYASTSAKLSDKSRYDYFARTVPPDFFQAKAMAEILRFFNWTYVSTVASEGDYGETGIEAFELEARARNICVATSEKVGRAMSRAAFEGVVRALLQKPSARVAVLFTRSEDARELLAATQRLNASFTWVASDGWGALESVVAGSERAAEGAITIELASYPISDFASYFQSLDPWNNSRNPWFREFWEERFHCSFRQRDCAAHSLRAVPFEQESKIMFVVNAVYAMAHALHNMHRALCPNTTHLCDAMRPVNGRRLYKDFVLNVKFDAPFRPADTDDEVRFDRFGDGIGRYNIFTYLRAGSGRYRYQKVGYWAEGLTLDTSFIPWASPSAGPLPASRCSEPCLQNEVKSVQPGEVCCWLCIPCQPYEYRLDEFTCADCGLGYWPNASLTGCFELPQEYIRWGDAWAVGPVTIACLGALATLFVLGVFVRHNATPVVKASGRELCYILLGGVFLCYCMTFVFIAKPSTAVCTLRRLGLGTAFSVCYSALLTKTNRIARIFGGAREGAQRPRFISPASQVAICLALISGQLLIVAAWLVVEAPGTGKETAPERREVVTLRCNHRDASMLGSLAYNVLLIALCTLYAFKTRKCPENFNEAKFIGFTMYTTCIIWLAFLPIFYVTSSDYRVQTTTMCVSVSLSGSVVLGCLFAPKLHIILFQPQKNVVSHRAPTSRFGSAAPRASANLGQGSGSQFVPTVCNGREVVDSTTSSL

As to `CN(Cc1ccncc1)c1ccc2c(c1)c(=O)c(C(N)=O)cn2-c1ccc(F)cc1` [Compound 19, 1-(4-fluorophenyl)-6-(methyl(pyridin-4-ylmethyl)amino)-4-oxo-1,4-dihydroquinoline-3-carboxamide], the IC50 is 224 nM and the remaining activity at 30 µM came out at 1.02%.
Taken in the same sequence, the figures for `CN(c1ccncc1)c1ccc2c(c1)c(=O)c(C(N)=O)cn2-c1ccc(F)cc1` [Compound 18, 1-(4-fluorophenyl)-6-(methyl(pyridin-4-yl)amino)-4-oxo-1,4-dihydroquinoline-3-carboxamide] were 1150 nM and 1.73%.
`Cc1ncc(-c2ccc3c(c2)c(=O)c(C(N)=O)cn3-c2ccc(F)cc2)cn1` [Compound 62, 1-(4-fluorophenyl)-6-(2-methylpyrimidin-5-yl)-4-oxo-1,4-dihydroquinoline-3-carboxamide]: the IC50 was more than 10000 nM and the remaining activity at 30 µM was found to be 30.3%.
For `Cc1ccc(COc2ccc3c(c2)c(=O)c(C(N)=O)cn3-c2ccc(F)cc2)cn1` [Compound 21, 1-(4-fluorophenyl)-6-((6-methylpyridin-3-yl)methoxy)-4-oxo-1,4-dihydroquinoline-3-carboxamide], in that order: 541 ± 116 nM and 1.55 ± 0.39%.
Taken in the same sequence, the figures for `NC(=O)c1cn(-c2ccc(F)cc2)c2ccc(NCC3CCOCC3)cc2c1=O` [Compound 53, 1-(4-fluorophenyl)-4-oxo-6-(((tetrahydro-2H-pyran-4-yl)methyl)amino)-1,4-dihydroquinoline-3-carboxamide] were 659 nM and 1.04%.
For the compound `Cc1ncc(CN(C)c2ccc3c(c2)c(=O)c(C(N)=O)cn3-c2ccc(F)cc2)cn1` [Compound 31, 1-(4-fluorophenyl)-6-(methyl((2-methylpyrimidin-5-yl)methyl)amino)-4-oxo-1,4-dihydroquinoline-3-carboxamide], the 50% inhibitory concentration (IC50) stood at 153 ± 33 nM and the remaining activity at 30 µM stood at 1.86 ± 0.26%.
For the compound `NC(=O)c1cn(-c2ccc(F)cc2)c2ccc(CN3CCCCCC3)cc2c1=O` [Compound 73, 6-(azepan-1-ylmethyl)-1-(4-fluorophenyl)-4-oxo-1,4-dihydroquinoline-3-carboxamide], the IC50 was found to be 2590 nM and the remaining activity at 30 µM came out at 0.96%.
For `Cn1cc(-c2ccc3c(c2)c(=O)c(C(N)=O)cn3-c2ccc(F)cc2)cn1` [Compound 61, 1-(4-fluorophenyl)-6-(1-methyl-1H-pyrazol-4-yl)-4-oxo-1,4-dihydroquinoline-3-carboxamide], in that order: 544 nM and 0.41%.
As to `NC(=O)c1cn(-c2ccc(F)cc2)c2ccc(CN3CCCC4CCCCC43)cc2c1=O` (stereo not drawn) [Compound 67, 1-(4-fluorophenyl)-6-((octahydroquinolin-1(2H)-yl)methyl)-4-oxo-1,4-dihydroquinoline-3-carboxamide], the IC50 came to 617 nM and the remaining activity at 30 µM was 2.4%.
For `NC(=O)c1cn(-c2ccc(F)cc2)c2ccc(OCc3ccncc3)cc2c1=O` [Compound 25, 1-(4-fluorophenyl)-4-oxo-6-(pyridin-4-ylmethoxy)-1,4-dihydroquinoline-3-carboxamide], in that order: 1230 nM and 0.97%.
As to `NC(=O)c1cn(-c2ccc(F)cc2)c2ccc(CN3CCSCC3)cc2c1=O` [Compound 2, 1-(4-fluorophenyl)-4-oxo-6-(thiomorpholinomethyl)-1,4-dihydroquinoline-3-carboxamide], the IC50 was 440 ± 97 nM and the remaining activity at 30 µM came to 1.52 ± 0.63%.
Taken in the same sequence, the figures for `COc1ccc(-n2cc(C(N)=O)c(=O)c3cc(CCc4cnc(C)nc4)ccc32)cc1F` [Compound 14, 1-(3-fluoro-4-methoxyphenyl)-6-(2-(2-methylpyrimidin-5-yl)ethyl)-4-oxo-1,4-dihydroquinoline-3-carboxamide] were 252 nM and 1.15%.
Taken in the same sequence, the figures for `NC(=O)c1cn(-c2ccc(F)cc2)c2ccc(Oc3cccnc3)cc2c1=O` [Compound 56, 1-(4-fluorophenyl)-4-oxo-6-(pyridin-3-yloxy)-1,4-dihydroquinoline-3-carboxamide] were 882 ± 160 nM and 1.84 ± 0.47%.
As to `CN(Cc1ccc2c(c1)c(=O)c(C(N)=O)cn2-c1ccc(F)cc1)C1CCCC1` [Compound 69, 6-((cyclopentyl(methyl)amino)methyl)-1-(4-fluorophenyl)-4-oxo-1,4-dihydroquinoline-3-carboxamide], the IC50 was determined as 2190 nM and the remaining activity at 30 µM amounted to 1.39%.
For the compound `CN(Cc1cccnc1)c1cc(F)c2c(c1)c(=O)c(C(N)=O)cn2-c1ccc(F)cc1` [Compound 51, 8-fluoro-1-(4-fluorophenyl)-6-(methyl(pyridin-3-ylmethyl)amino)-4-oxo-1,4-dihydroquinoline-3-carboxamide], the IC50 was found to be 1180 nM and the remaining activity at 30 µM is 1.39%.
Taken in the same sequence, the figures for `CS(=O)(=O)N1CCN(Cc2ccc3c(c2)c(=O)c(C(N)=O)cn3-c2ccc(F)cc2)CC1` [Compound 83, 1-(4-fluorophenyl)-6-((4-(methylsulfonyl)piperazin-1-yl)methyl)-4-oxo-1,4-dihydroquinoline-3-carboxamide] were 694 nM and 1.47%.
`CN(Cc1ccc2c(c1)c(=O)c(C(N)=O)cn2-c1ccc(F)cc1)C1CC1` [Compound 70, 6-((cyclopropyl(methyl)amino)methyl)-1-(4-fluorophenyl)-4-oxo-1,4-dihydroquinoline-3-carboxamide]: the IC50 came to 821 nM and the remaining activity at 30 µM stood at 1.33%.
On to `NC(=O)c1cn(-c2ccc(F)cc2)c2ccc(CN3CC4(C3)CC(F)(F)C4)cc2c1=O` [Compound 65, 6-((6,6-difluoro-2-azaspiro[3.3]heptan-2-yl)methyl)-1-(4-fluorophenyl)-4-oxo-1,4-dihydroquinoline-3-carboxamide], for which the IC50 was 2020 nM and the remaining activity at 30 µM is 1.93%.
Taken in the same sequence, the figures for `NC(=O)c1cn(-c2ccc(F)cc2)c2ccc(CCc3ccc(C(F)(F)F)nc3)cc2c1=O` [Compound 47, 1-(4-fluorophenyl)-4-oxo-6-(2-(6-(trifluoromethyl)pyridin-3-yl)ethyl)-1,4-dihydroquinoline-3-carboxamide] were 1550 nM and 1.21%.
For `NC(=O)c1cn(-c2ccc(F)cc2)c2ccc(COc3ccc(F)nc3)cc2c1=O` [Compound 45, 1-(4-fluorophenyl)-6-(((6-fluoropyridin-3-yl)oxy)methyl)-4-oxo-1,4-dihydroquinoline-3-carboxamide], in that order: 352 nM and 1.47%.
As for `NC(=O)c1cn(-c2ccc(F)cc2)c2ccc(Nc3cccnc3)cc2c1=O` [Compound 16, 1-(4-fluorophenyl)-4-oxo-6-(pyridin-3-ylamino)-1,4-dihydroquinoline-3-carboxamide], the IC50 worked out at 433 nM and the remaining activity at 30 µM was found to be 1.77%.
Take `Cc1ncc(CCc2cc3c(=O)c(C(N)=O)cn(-c4ccc(F)cc4)c3cc2F)cn1` [Compound 54, 7-fluoro-1-(4-fluorophenyl)-6-(2-(2-methylpyrimidin-5-yl)ethyl)-4-oxo-1,4-dihydroquinoline-3-carboxamide]: the IC50 amounted to 2700 nM and the remaining activity at 30 µM was 1.02%.
For `CN(c1cccnc1)c1ccc2c(c1)c(=O)c(C(N)=O)cn2-c1ccc(F)cc1` [Compound 20, 1-(4-fluorophenyl)-6-(methyl(pyridin-3-yl)amino)-4-oxo-1,4-dihydroquinoline-3-carboxamide], in that order: 155 nM and 1.33%.
Taken in the same sequence, the figures for `NC(=O)c1cn(-c2ccc(F)cc2)c2ccc(N3CCC(N4CCOCC4)C3)cc2c1=O` (stereo not drawn) [Compound 50, 1-(4-fluorophenyl)-6-(3-morpholinopyrrolidin-1-yl)-4-oxo-1,4-dihydroquinoline-3-carboxamide] were 1320 nM and 1.08%.
